From PMC5149017, “Synthesis and Acetylcholinesterase Inhibitory Evaluation of 4-(1,3-Dioxoisoindolin-2-yl)-N-Phenyl Benzamide Derivatives as Potential Anti-Alzheimer Agents” (Iranian Journal of Pharmaceutical Research : IJPR, 2016)

target: T1, acetylcholinesterase from electric eel source (AChE, E.C. 3.1.1.7, Type V-S) (Electrophorus electricus, UniProt O42275); assay: biochemical; conditions: Ellman test, preincubation 15 min at 25 °C, pH 8.0, triplicate, IC50 ± SD, read-out: IC50 (enzymatic assay, acetylcholinesterase inhibition)
T1 construct: Acetylcholinesterase enzyme extracted from electric eel was utilized; purchased Sigma-Aldrich (Steinheim, Germany) Type V-S; host or cells: electric eel tissue (extracted)
T1 sequence (O42275 24-633): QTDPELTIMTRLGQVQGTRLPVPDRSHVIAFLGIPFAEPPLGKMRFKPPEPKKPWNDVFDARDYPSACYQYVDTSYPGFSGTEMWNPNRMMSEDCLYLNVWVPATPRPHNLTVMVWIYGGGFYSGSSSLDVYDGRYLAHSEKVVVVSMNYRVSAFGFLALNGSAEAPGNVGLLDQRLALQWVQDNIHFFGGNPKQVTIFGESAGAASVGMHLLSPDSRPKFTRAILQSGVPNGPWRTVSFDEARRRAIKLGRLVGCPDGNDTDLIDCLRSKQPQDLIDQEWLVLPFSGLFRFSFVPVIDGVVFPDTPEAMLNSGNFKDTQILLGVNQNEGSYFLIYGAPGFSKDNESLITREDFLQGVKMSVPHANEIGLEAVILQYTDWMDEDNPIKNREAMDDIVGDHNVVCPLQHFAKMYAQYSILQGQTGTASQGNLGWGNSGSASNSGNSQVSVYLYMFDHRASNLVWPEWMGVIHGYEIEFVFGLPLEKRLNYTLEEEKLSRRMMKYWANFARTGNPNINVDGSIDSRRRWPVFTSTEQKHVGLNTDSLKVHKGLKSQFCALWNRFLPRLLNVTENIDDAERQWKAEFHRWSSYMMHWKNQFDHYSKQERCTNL
Procedure: Lyophilized powder of acetylcholinesterase from electric eel source (AChE, E.C. 3.1.1.7, Type V-S, 1000 unit) was purchased from Sigma-Aldrich (Steinheim, Germany). 5,5′-Dithiobis-(2-nitrobenzoic acid, DTNB), potassium dihydrogen phosphate (KH2PO4), dipotassium hydrogen phosphate (K2HPO4), potassium hydroxide (KOH), sodium hydrogen carbonate (NaHCO3), and acetylthiocholine iodide were purchased from Fluka (Buchs, Switzerland).
According to the literature, the Ellman test was performed for assessment of the anticholinesterase activity of intended compounds in-vitro. […] After rapid and immediate mixing the change of absorption was measured at 412 nm.
The blank reading contained 3 mL buffer, 200 µL water, 100 µL DTNB and 20 µL substrate. The reaction rates were calculated, and the percent inhibition of test compounds was determined. Each concentration was analyzed in triplicate, and IC50 ± SD values were determined graphically from inhibition curves (log inhibitor concentration vs. percent of inhibition) ([22], [23]).
Acetylcholinesterase enzyme extracted from electric eel was utilized for assessment of the potency of intended compounds.

Going from `O=C(Nc1ccccc1[N+](=O)[O-])c1ccc(N2C(=O)c3ccccc3C2=O)cc1` [Compound 4g, 4-(1,3-Dioxoisoindolin-2-yl)-N-(2-nitrophenyl)benzamide] to `O=C(Nc1ccccc1F)c1ccc(N2C(=O)c3ccccc3C2=O)cc1` [Compound 4c, 4-(1,3-Dioxoisoindolin-2-yl)-N-(2-fluorophenyl)benzamide], the IC50 rises from 1.1 ± 0.25 µM to > 250 µM. The first is the more potent here.

`O=C(Nc1ccc([N+](=O)[O-])cc1)c1ccc(N2C(=O)c3ccccc3C2=O)cc1` [Compound 4h, 4-(1,3-Dioxoisoindolin-2-yl)-N-(4-nitrophenyl)benzamide] and `O=C(Nc1ccc(Cl)cc1)c1ccc(N2C(=O)c3ccccc3C2=O)cc1` [Compound 4b, N-(4-Chlorophenyl)-4-(1,3-dioxoisoindolin-2-yl)benzamide] cannot be ordered by IC50: > 250 µM for the first, > 250 µM for the second.

`COc1ccc(NC(=O)c2ccc(N3C(=O)c4ccccc4C3=O)cc2)cc1` [Compound 4f, 4-(1,3-Dioxoisoindolin-2-yl)-N-(4-methoxyphenyl)benzamide] and `COc1cccc(NC(=O)c2ccc(N3C(=O)c4ccccc4C3=O)cc2)c1` [Compound 4e, 4-(1,3-Dioxoisoindolin-2-yl)-N-(3-methoxyphenyl)benzamide] cannot be ordered by IC50: > 250 µM for the first, > 250 µM for the second.

`O=C(Nc1cccc(Cl)c1)c1ccc(N2C(=O)c3ccccc3C2=O)cc1` [Compound 4a, N-(3-Chlorophenyl)-4-(1,3-dioxoisoindolin-2-yl)benzamide] and `O=C(Nc1cccc(F)c1)c1ccc(N2C(=O)c3ccccc3C2=O)cc1` [Compound 4d, 4-(1,3-Dioxoisoindolin-2-yl)-N-(3-fluorophenyl)benzamide] cannot be ordered by IC50: > 250 µM for the first, > 250 µM for the second.
